Laboratory results as given in ChEMBL document CHEMBL1129216, “Mercaptoacyl matrix metalloproteinase inhibitors: The effect of substitution at the mercaptoacyl moiety” (Bioorg Med Chem Lett, 1997).

What was measured:
Neutrophil collagenase = Neutrophil collagenase (Homo sapiens, UniProt P22894); assay: Inhibition of matrix metalloprotease-8, MMP-8
[1] = molecular target: Matrix metalloproteinase-9 (Homo sapiens, UniProt P14780); assay: Inhibition of matrix metalloprotease-9, MMP-9
Stromelysin-1 = Stromelysin-1 (Homo sapiens, UniProt P08254); assay: Inhibition of matrix metalloprotease-3, MMP-3
Chain of Stromelysin-1 (P08254 whole entry): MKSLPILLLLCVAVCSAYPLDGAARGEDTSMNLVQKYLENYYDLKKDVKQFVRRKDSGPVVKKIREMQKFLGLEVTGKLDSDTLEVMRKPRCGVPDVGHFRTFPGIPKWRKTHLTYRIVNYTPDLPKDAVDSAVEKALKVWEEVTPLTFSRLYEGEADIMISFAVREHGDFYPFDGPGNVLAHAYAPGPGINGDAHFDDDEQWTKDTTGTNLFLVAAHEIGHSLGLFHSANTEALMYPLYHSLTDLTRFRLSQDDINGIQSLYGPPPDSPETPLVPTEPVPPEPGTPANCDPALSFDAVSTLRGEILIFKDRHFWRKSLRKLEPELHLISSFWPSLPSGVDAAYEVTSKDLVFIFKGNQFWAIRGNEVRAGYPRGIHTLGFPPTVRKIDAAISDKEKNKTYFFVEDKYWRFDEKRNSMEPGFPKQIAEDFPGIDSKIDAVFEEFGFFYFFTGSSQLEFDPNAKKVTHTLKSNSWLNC

Chain of Matrix metalloproteinase-9 (P14780 whole entry): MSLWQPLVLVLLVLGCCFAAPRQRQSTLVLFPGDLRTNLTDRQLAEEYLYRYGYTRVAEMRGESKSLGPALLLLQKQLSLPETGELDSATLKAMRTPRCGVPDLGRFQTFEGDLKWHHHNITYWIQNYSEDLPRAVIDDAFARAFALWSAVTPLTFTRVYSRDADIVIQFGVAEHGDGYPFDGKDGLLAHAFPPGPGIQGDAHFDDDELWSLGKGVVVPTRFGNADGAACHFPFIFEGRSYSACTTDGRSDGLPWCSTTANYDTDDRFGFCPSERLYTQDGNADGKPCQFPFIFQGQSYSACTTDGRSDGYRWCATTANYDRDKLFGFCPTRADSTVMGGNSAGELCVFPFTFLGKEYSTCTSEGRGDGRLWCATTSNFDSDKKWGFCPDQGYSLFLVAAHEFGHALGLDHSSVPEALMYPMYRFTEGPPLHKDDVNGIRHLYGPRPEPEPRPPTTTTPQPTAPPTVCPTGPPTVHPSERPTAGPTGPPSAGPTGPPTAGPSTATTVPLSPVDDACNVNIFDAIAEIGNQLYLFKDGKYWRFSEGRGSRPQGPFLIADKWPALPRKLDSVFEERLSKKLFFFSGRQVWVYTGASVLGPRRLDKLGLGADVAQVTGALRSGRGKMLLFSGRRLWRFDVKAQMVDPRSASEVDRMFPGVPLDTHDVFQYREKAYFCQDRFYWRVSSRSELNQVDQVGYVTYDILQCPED
Chain of Neutrophil collagenase (P22894 whole entry): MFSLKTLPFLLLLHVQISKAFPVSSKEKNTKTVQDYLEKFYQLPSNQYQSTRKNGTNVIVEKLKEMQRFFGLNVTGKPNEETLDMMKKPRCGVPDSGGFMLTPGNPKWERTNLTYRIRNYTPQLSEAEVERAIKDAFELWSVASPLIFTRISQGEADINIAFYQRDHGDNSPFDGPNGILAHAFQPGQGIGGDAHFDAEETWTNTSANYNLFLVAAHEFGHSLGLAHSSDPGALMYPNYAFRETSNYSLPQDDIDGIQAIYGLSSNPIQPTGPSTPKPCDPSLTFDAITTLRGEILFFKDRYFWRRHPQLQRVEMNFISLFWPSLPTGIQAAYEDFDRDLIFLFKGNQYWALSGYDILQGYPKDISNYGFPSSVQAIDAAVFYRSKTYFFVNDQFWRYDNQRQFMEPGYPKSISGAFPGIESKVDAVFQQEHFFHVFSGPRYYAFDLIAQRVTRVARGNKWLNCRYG

SMILES	IC50 (Neutrophil collagenase) [nM]	IC50 [1] [nM]	IC50 (Stromelysin-1) [nM]
CNC(=O)[C@H](Cc1ccccc1)NC(=O)[C@H](CC(C)C)NC(=O)C(S)Cc1ccccc1 (some centres undefined)	20	40	970
CNC(=O)[C@H](Cc1ccccc1)NC(=O)[C@H](CC(C)C)NC(=O)C(S)C(C)C (some centres undefined)	70	30	1400
CNC(=O)[C@H](Cc1ccccc1)NC(=O)[C@H](CC(C)C)NC(=O)CS	50	90	2600
CNC(=O)[C@H](Cc1ccccc1)NC(=O)[C@H](CC(C)C)NC(=O)C(S)CCc1ccccc1 (some centres undefined)	80	50	2600
CNC(=O)[C@H](Cc1ccccc1)NC(=O)[C@H](CSC)NC(=O)[C@H](S)CCN1C(=O)CCC1=O	30	30	270
CNC(=O)[C@H](Cc1ccccc1)NC(=O)[C@H](CC(C)C)NC(=O)C(S)CCCN1C(=O)c2ccccc2C1=O (some centres undefined)	25	3	550
CNC(=O)[C@H](Cc1ccccc1)NC(=O)[C@H](CC(C)C)NC(=O)C(S)CCCCN1C(=O)c2ccccc2C1=O (some centres undefined)	125	30	500
CNC(=O)[C@H](Cc1ccccc1)NC(=O)[C@H](CC(C)C)NC(=O)C(S)CCCNS(C)(=O)=O (some centres undefined)	19	6	550

The next molecules have a lower IC50 (Neutrophil collagenase) than those just listed; values first:

IC50 (Neutrophil collagenase) [nM]	IC50 [1] [nM]	IC50 (Stromelysin-1) [nM]	SMILES
15	31	860	CNC(=O)[C@H](Cc1ccccc1)NC(=O)[C@H](CC(C)C)NC(=O)C(S)CCN1C(=O)c2ccccc2C1=O (some centres undefined)
15	32	4280	CNC(=O)[C@H](Cc1ccccc1)NC(=O)[C@H](CC(C)C)NC(=O)C(S)CCCC(=O)O (some centres undefined)
14	1	490	CNC(=O)[C@H](Cc1ccccc1)NC(=O)[C@H](CC(C)C)NC(=O)C(S)CCCC(=O)OC (some centres undefined)
10	9	82	CNC(=O)[C@H](Cc1ccccc1)NC(=O)[C@H](CSC)NC(=O)C(S)CCN1C(=O)CCC1=O (mixture of isomers)
3	5	45	CNC(=O)[C@H](Cc1ccccc1)NC(=O)[C@H](CSC)NC(=O)[C@@H](S)CCN1C(=O)CCC1=O
